{"source": "patent US6329338A", "about": "“Derivatives of cyclodepsipeptide PF1022 substance” (Meiji Seika Kaisha, Ltd., priority 1995, dated 2001)", "key": {"[1]": {"tested_on": "Nippostrongylus brasiliensis", "assay": "in vivo test on anthelmintic activity against Nippostrongylus brasiliensis in rats (adult parasites remaining in small intestine)", "details": "male Wister rats, oral, ten days after administration, vs infected untreated control", "description": "\"in vivo\" Test on Anthelmintic Activity Against Nipostrongylus brasiliensis Male rats of Wister strain, which have been artificially infected with Nippostrongylus brasiliensis, were used as test animals. The administration dose (mg) of each test compound was accurately calculated on the basis of the body weight (kg) of each rat. Each compound tested was used in the form of a solution in dimethlsulfoxide or methanol. The solution was diluted with a Ringer solution and forcedly administered orally to the test rats. Ten days after the administration, the rats were dissected and the number of adult parasites remaining in the small intestines of the rats was counted. Efficacy was calculated in comparison with the number of adult parasites in the control group of test rats (infected, but untreated) and is shown in Table 2 below."}, "[2]": {"tested_on": "Haemonchus contortus", "assay": "in vivo test on anthelmintic activity against sheep parasites (faecal egg count before and after dosing)", "details": "sheep infested with Haemonchus contortus; oral, gelatine capsules", "from_the_text": "\"in vivo\" Test on Anthelmintic Activity Against Sheep Parasites\nTo sheep on which a nematode, Haemonchus contortus has been infested, a test compounds formulated in the form of gelatine capsules was orally administered at its dose (mg) which was accurately calculated on the basis of the body weight (kg) of the tested sheep.\nThe number of eggs, which were excreted along with feces from the sheep under test, was counted quantitatively both before and after the administration of the test compound. Thus, the extent of the anthelmintic effects of the test compound was evaluated. The test results are shown in Table 1 below, wherein the tested compounds are indicated by the code number of each substance tested. In Table 1, there is shown the dosage of test compound at which involvement of the excretion of eggs could not be observed at all, that is to say, the dosage of each novel cyclodespsipeptide derivative of PF1022 substance according to this invention at which the parasite could be expelled or exterminated completely."}}}
{"molecule": "CC(C)C[C@H]1C(=O)O[C@H](Cc2ccccc2)C(=O)N(C)[C@@H](CC(C)C)C(=O)O[C@H](C)C(=O)N(C)[C@@H](CC(C)C)C(=O)O[C@H](Cc2ccccc2)C(=O)N(C)[C@@H](CC(C)C)C(=O)O[C@H](C)C(=O)N1C", "note": "[PF1022 substance, Cyclo(L-MeLeu-D-Lac-L-MeLeu-D-PhLac-L-MeLeu-D-Lac-L-MeLeu-D-PhLac)]", "values": [{"measurement": "Efficacy (%)", "setting": "[1]; dosage 10 mg/kg", "result": 80.2, "unit": "%"}, {"measurement": "Adminstration dose (mg/kg): dosage at which excretion of eggs could not be observed at all (parasite expelled completely)", "setting": "[2]", "result": 0.25, "unit": "mg/kg"}]}
{"molecule": "CCN(CC)CCOc1ccc(C[C@H]2OC(=O)[C@H](CC(C)C)N(C)C(=O)[C@@H](C)OC(=O)[C@H](CC(C)C)N(C)C(=O)[C@@H](Cc3ccccc3)OC(=O)[C@H](CC(C)C)N(C)C(=O)[C@@H](C)OC(=O)[C@H](CC(C)C)N(C)C2=O)cc1", "note": "[PF1022-236, Cyclo[MeLeu-Lac-MeLeu-((C2 H5)2 NCH2 CH2 O)PhLac-MeLeu-Lac-MeLeu-PhLac]]", "values": [{"measurement": "Adminstration dose (mg/kg): dosage at which excretion of eggs could not be observed at all (parasite expelled completely)", "setting": "[2]", "result": 0.01, "unit": "mg/kg"}]}
{"molecule": "COCCN(CCOC)CCOc1ccc(CC2OC(=O)C(CC(C)C)N(C)C(=O)C(C)OC(=O)C(CC(C)C)N(C)C(=O)C(Cc3ccccc3)OC(=O)C(CC(C)C)N(C)C(=O)C(C)OC(=O)C(CC(C)C)N(C)C2=O)cc1", "note": "(stereo not drawn) [PF1022-238, Cyclo[MeLeu-((CH3 OCH2 CH2)2 NCH2 CH2 O)PhLac-MeLeu-Lac-MeLeu-PhLac-MeLeu-Lac]]", "values": [{"measurement": "Adminstration dose (mg/kg): dosage at which excretion of eggs could not be observed at all (parasite expelled completely)", "setting": "[2]", "result": 0.01, "unit": "mg/kg"}]}
{"molecule": "Cyclo[MeLeu-(Mor)PhLac-MeLeu-Lac-MeLeu-PhLac-MeLeu-Lac] [PF1022-233]", "values": [{"measurement": "Efficacy (%)", "setting": "[1]; dosage 1 mg/kg", "result": 99.1, "unit": "%"}, {"measurement": "Efficacy (%)", "setting": "[1]; dosage 2 mg/kg", "result": 100, "unit": "%"}, {"measurement": "Efficacy (%)", "setting": "[1]; dosage 5 mg/kg", "result": 100, "unit": "%"}, {"measurement": "Adminstration dose (mg/kg): dosage at which excretion of eggs could not be observed at all (parasite expelled completely)", "setting": "[2]", "result": 0.05, "unit": "mg/kg"}]}
{"molecule": "Cyclo[MeLeu-(Mor)PhLac-MeLeu-Lac] [reference compound]", "values": [{"measurement": "Adminstration dose (mg/kg): dosage at which excretion of eggs could not be observed at all (parasite expelled completely)", "setting": "[2]", "result": 0.05, "unit": "mg/kg"}]}
{"molecule": "Cyclo[MeLeu-(MorCH2 CH2 O)PhLac-MeLeu-Lac-MeLeu-PhLac-MeLeu-Lac] [PF1022-239]", "values": [{"measurement": "Adminstration dose (mg/kg): dosage at which excretion of eggs could not be observed at all (parasite expelled completely)", "setting": "[2]", "result": 0.025, "unit": "mg/kg"}]}
{"molecule": "Cyclo[MeLeu-(o-Mor)PhLac-MeLeu-Lac-MeLeu-(p-Mor)PhLac-MeLeu-Lac] [PF1022-280]", "values": [{"measurement": "Efficacy (%)", "setting": "[1]; dosage 1 mg/kg", "result": 95.8, "unit": "%"}, {"measurement": "Efficacy (%)", "setting": "[1]; dosage 2 mg/kg", "result": 99.3, "unit": "%"}, {"measurement": "Efficacy (%)", "setting": "[1]; dosage 5 mg/kg", "result": 100, "unit": "%"}]}
{"molecule": "Cyclo[MeLeu-Lac-MeLeu-((C2 H5)2 NHCH2 CH2 O)PhLac]2 [PF1022-263]", "values": [{"measurement": "Adminstration dose (mg/kg): dosage at which excretion of eggs could not be observed at all (parasite expelled completely)", "setting": "[2]", "result": 0.01, "unit": "mg/kg"}]}
{"molecule": "Cyclo[MeLeu-Lac-MeLeu-((C6 H5)2 CHOCO)Lac-MeLeu-Lac-MeLeu-PhLac] [PF1022-046]", "values": [{"measurement": "Adminstration dose (mg/kg): dosage at which excretion of eggs could not be observed at all (parasite expelled completely)", "setting": "[2]", "result": 0.1, "unit": "mg/kg"}]}
{"molecule": "Cyclo[MeLeu-Lac-MeLeu-((C6 H5)2 CHOCO)Lac]2 [PF1022-045]", "values": [{"measurement": "Adminstration dose (mg/kg): dosage at which excretion of eggs could not be observed at all (parasite expelled completely)", "setting": "[2]", "result": 0.1, "unit": "mg/kg"}]}
{"molecule": "Cyclo[MeLeu-Lac-MeLeu-((CH3)2 NCH2 CH2 O)PhLac-MeLeu-Lac-MeLeu-PhLac] [PF1022-235]", "values": [{"measurement": "Adminstration dose (mg/kg): dosage at which excretion of eggs could not be observed at all (parasite expelled completely)", "setting": "[2]", "result": 0.1, "unit": "mg/kg"}]}
{"molecule": "Cyclo[MeLeu-Lac-MeLeu-(Bu2 NCH2 CH2 O)PhLac-MeLeu-Lac-MeLeu-PhLac] [PF1022-271]", "values": [{"measurement": "Efficacy (%)", "setting": "[1]; dosage 5 mg/kg", "result": 100, "unit": "%"}]}
{"molecule": "Cyclo[MeLeu-Lac-MeLeu-(Pr2 NCH2 CH2 O)PhLac-MeLeu-Lac-MeLeu-PhLac] [PF1022-270]", "values": [{"measurement": "Efficacy (%)", "setting": "[1]; dosage 2 mg/kg", "result": 94.2, "unit": "%"}, {"measurement": "Efficacy (%)", "setting": "[1]; dosage 5 mg/kg", "result": 99.7, "unit": "%"}]}
{"molecule": "Cyclo[MeLeu-Lac-MeLeu-(furfuryloxy)PhLac-MeLeu-Lac-MeLeu-PhLac] [PF1022-312]", "values": [{"measurement": "Adminstration dose (mg/kg): dosage at which excretion of eggs could not be observed at all (parasite expelled completely)", "setting": "[2]", "result": 0.05, "unit": "mg/kg"}]}
{"molecule": "Cyclo[MeLeu-Lac-MeLeu-(imidazolyl-4-methoxy)PhLac-MeLeu-Lac-MeLeu-PhLac] [PF1022-304]", "values": [{"measurement": "Adminstration dose (mg/kg): dosage at which excretion of eggs could not be observed at all (parasite expelled completely)", "setting": "[2]", "result": 0.05, "unit": "mg/kg"}]}
{"molecule": "Cyclo[MeLeu-Lac-MeLeu-(pipCH2 CH2 O)PhLac-MeLeu-Lac-MeLeu-PhLac] [PF1022-285]", "values": [{"measurement": "Adminstration dose (mg/kg): dosage at which excretion of eggs could not be observed at all (parasite expelled completely)", "setting": "[2]", "result": 0.1, "unit": "mg/kg"}]}
{"molecule": "Cyclo[MeLeu-Lac-MeLeu-(t-BuO)PhLac]2 [PF1022-222]", "values": [{"measurement": "Adminstration dose (mg/kg): dosage at which excretion of eggs could not be observed at all (parasite expelled completely)", "setting": "[2]", "result": 0.05, "unit": "mg/kg"}]}
{"molecule": "Cyclo[MeLeu-Lac-MeLeu-PhLac-MeLeu-Lac-MeLeu-(NH2 CO)PhLac] [PF1022-242]", "values": [{"measurement": "Adminstration dose (mg/kg): dosage at which excretion of eggs could not be observed at all (parasite expelled completely)", "setting": "[2]", "result": 0.01, "unit": "mg/kg"}]}
